Reference: BindingDB's records for doi:10.1111/j.1747-0285.2009.00881.x (University of Notre Dame, 2009)

target: 72 kDa type IV collagenase (Homo sapiens, UniProt P08253); experiment: Inhibition Assay
Excerpt: Inhibition assay using matrix metalloproteinase (MMP-2).

Chain of 72 kDa type IV collagenase (P08253 whole entry): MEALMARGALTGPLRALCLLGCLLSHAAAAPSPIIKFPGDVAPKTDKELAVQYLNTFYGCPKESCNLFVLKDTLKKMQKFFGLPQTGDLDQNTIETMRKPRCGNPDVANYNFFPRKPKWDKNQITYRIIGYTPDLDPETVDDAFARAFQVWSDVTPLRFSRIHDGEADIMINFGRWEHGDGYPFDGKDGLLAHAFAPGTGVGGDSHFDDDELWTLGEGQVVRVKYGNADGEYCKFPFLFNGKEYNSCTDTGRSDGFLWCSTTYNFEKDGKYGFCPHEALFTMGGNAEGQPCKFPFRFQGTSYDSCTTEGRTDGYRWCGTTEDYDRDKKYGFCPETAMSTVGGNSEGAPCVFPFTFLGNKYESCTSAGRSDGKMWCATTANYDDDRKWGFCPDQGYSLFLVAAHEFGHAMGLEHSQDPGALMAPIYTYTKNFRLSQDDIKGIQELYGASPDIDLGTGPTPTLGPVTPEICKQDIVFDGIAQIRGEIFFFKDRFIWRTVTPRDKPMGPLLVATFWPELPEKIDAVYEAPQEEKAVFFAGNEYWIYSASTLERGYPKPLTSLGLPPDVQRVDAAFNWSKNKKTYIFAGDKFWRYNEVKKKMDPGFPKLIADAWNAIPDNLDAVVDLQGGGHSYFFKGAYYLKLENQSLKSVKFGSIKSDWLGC

Row | Compound | Ki
1 | CC(C)(C1CS1)S(=O)(=O)c1ccc(Oc2ccccc2)cc1 (stereo not drawn) [Alpha, alpha-dimethyl derivative, 5] | > 40000 nM
2 | CC1(C)SC1CS(=O)(=O)c1ccc(Oc2ccccc2)cc1 (centres undefined) [Gama, gama-dimethyl derivative, 6] | 1400 nM
3 | [O-][S+](CC1CS1)c1ccc(Oc2ccccc2)cc1 (centres undefined) [Sulfoxide, 4] | 2100 nM
4 | O=S(=O)(/C=C/CS)c1ccc(Oc2ccccc2)cc1 [Vinylsulfone, 7] | 0.53 nM
